Laboratory results as given in patent US20080114047A1 (priority 2003, published 2008).
“And” between values parts separate entries of the source, which are not always exact repeats. Equal values may be shown once. Where a name gives a salt, the structure may show the parent alone.

Tests used:
[1] = system: L. donovani axenic amastigotes; experiment: In vitro anti-leishmania activity (IC50 vs. L. donovani axenic amastigotes); type: cell-based; conditions: Leishmania donovani; Tables VI(a), VI(c); read-out: Leishmania donovani IC50
[2] = system: Trypanosoma brucei rhodesiense; experiment: Anti-protozoan data: T.b.r. IC50; type: cell-based; conditions: Tables VI(a), VI(c), read-out: T.b.r. IC50
Trypanosoma cruzi = experiment: Anti-protozoan data: T. cruzi IC50; type: cell-based; conditions: Tables VI(a), VI(c), read-out: T. cruzi IC50
Plasmodium falciparum = experiment: Anti-protozoan data: P. falcip. IC50; type: cell-based; conditions: Tables VI(a), VI(c), read-out: P. falcip. IC50
DNA = DNA binding ΔTm; conditions: Tables VI(a), VI(c)
[3] = system: Mycobacterium tuberculosis; experiment: Compounds tested against Mycobacterium tuberculosis (MIC90); type: cell-based; conditions: read-out: M. tb. MIC90
Candida albicans = experiment: Anti-fungal data: Candida albicans; type: cell-based; conditions: for MFC / MIC80: strain A39; for MIC: strain A39, read-out: Candida albicans (A39) MIC100
Aspergillus fumigatus = experiment: Anti-fungal data: Aspergillus fumigatus; type: cell-based; conditions: for MIC80 / MFC: strain DUMC 168.95; for MIC: strain DUMC 168.95, read-out: Aspergillus. Fumigatus (DUMC 168.95) MIC100
Cryptococcus neoformans = experiment: Anti-fungal data: Cryptococcus neoformans; type: cell-based; conditions: for MFC / MIC80: strain H99; for MIC: strain H99, read-out: Cryptococcus neoformans (H99) MIC100

SMILES | IC50 [1] [nM] | IC50 [2] [nM] | IC50 (Trypanosoma cruzi) [nM] | IC50 (Plasmodium falciparum) [nM] | DNA binding Δ Tm (DNA) | MIC90 [3] | MFC (Candida albicans) [µg/mL] | MIC80 (Candida albicans) [µg/mL] | MIC (Candida albicans) [µg/mL] | MIC80 (Aspergillus fumigatus) [µg/mL] | MIC (Aspergillus fumigatus) [µg/mL] | MFC (Cryptococcus neoformans) [µg/mL] | MIC80 (Cryptococcus neoformans) [µg/mL] | MIC (Cryptococcus neoformans) [µg/mL] | IC50 (in vitro) [nM] | melting point | MFC (Aspergillus fumigatus) [µg/mL]
CC(C)NC(=N)c1ccc2oc(CCCCc3cc4cc(C(=N)NC(C)C)ccc4o3)cc2c1 [Compound 21, dihydrochloride] | 12700 ± 2270 | 98.8 | 69100 | 9.8 | 6.60 | 0.07 µg/mL and 0.13 µM | > 100 | 10 | 10 | > 100 | > 100 | > 100 | 100 | 100 | > 163000 |  | 
Cl.Cl.N=C(N)c1ccc(OCCCCCOc2cccc(-c3cc4cc(C(=N)N)ccc4o3)c2)cc1 [Compound 38, 2-(3-(5-(4-Carbamimidoylphenoxy)pentyloxy)phenyl)benzofuran-5-carboxamidine dihydrochloride] | 10500 ± 2110 | 863 | 7780 | 428 | 21.1 | 1.96 µg/mL and 3.48 µM | 12.5 | 0.78 | 6.25 | 50 | > 100 | 3.12 | 0.39 | 0.781 | 3020 | 165 to 168 °C | 
CC(C)NC(=N)c1ccc(OCCCCOc2ccc(-c3cc4cc(C(=N)NC(C)C)ccc4o3)cc2)cc1.Cl.Cl [Compound 48, 2-(4-(4-(4-(N-Isopropylcarbamimidoyl)phenoxy)butoxy)phenyl)-N-isopropylbenzofuran-5-carboxamidine dihydrochloride] | 2970 ± 160 | 1110 | 21000 | 302 | 13.3 | 59.4 µg/mL and 95.6 µM | 100 | 100 | 100 | 10 | 100 |  |  |  | 6920 | 305 °C | > 100
Cl.Cl.N=C(N)c1ccc(OCCCCCOc2ccc(-c3cc4cc(C(=N)N)ccc4o3)cc2)cc1 [Compound 50, 2-(4-(5-(4-Carbamimidoylphenoxy)pentyloxy)phenyl)benzofuran-5-carboxamidine dihydrochloride] |  | 369 | 4710 | 313 | 12.7 | 1.01 µg/mL and 1.84 µM | 3.12 | 0.39 | 0.78 | 6.25 | > 100 | 12.5 | 0.39 | 0.78 | 4190 | 290 °C (dec.) | 
CC(C)NC(=N)c1ccc(OCCCCCOc2ccc(-c3cc4cc(C(=N)NC(C)C)ccc4o3)cc2)cc1.Cl.Cl [Compound 51, 2-(4-(5-(4-(N-Isopropylcarbamimidoyl)phenoxy)pentyloxy)phenyl)-N-isopropylbenzofuran-5-carboxamidine dihydrochloride] | 2080 ± 640 | 302 | 7680 | 193 | 18.7 | 0.9 µg/mL and 1.43 µM | 100 | 100 | 100 | 100 | 100 |  |  |  | 20500 | 260 to 263 °C | > 100
Cl.Cl.c1cc(C2=NCCN2)ccc1OCCCCCCOc1ccc(-c2cc3cc(C4=NCCN4)ccc3o2)cc1 [Compound 55, 2-(2-(4-(6-(4-(4,5-Dihydro-1H-imidazol-2-yl)phenoxy)hexyloxy)phenyl)benzofuran-5-yl)-4,5-dihydro-1H-imidazole dihydrochloride] | 3320 ± 970 | 360 | 1830 | 116 | 14.4 | > 82.7 µg/mL and > 128 µM | 10 | 10 | 10 | 10 | > 100 |  |  |  | 1480 | 275 to 277 °C | 
